These results are taken from patent EP3797781A1, “USE OF EC-7072 AND SYNERGIC COMPOSITIONS THEREOF IN TREATMENT OF CHRONIC LYMPHOCYTIC LEUKEMIA” (priority 2019, dated 2021).

Molecules are shown by their SMILES.

In the assay the test system is leukemia cells. Briefly: Apoptosis of leukemia cells by Annexin V/PI staining. It is filed as cell-based, human. The conditions noted are these: 0 - 400 nM, 24 hours; PBMCs from patients with CLL (n = 6). As for the experimental part:
Cell viability and apoptosis were evaluated by double-staining with the mitochondrial inner transmembrane potential (ΔΨm)-sensitive dye DiOC6(3) (3,3'-dihexyloxacarbocyanine iodide; Sigma-Aldrich) and the exclusion dye propidium iodide (PI; Immunostep), allowing identification of apoptotic [DiOC6(3)^low PI^-] and dead [PI^+] cells as per Proc. Natl. Acad. Sci. U.S.A. (2014) 111(8):3020-3025 and Methods Mol. Biol. (2016) 1419:1-16. Briefly, PBMCs were resuspended in culture medium containing 20 nM DiOC6(3) and incubated for 30 minutes at 37 °C. Then, PI (1 µg/mL) was added and cells were further incubated for 10 minutes at room temperature (RT). Cells were analyzed by flow cytometry considering DiOC6(3)^+PI^- cells as viable. In some experiments, apoptosis was evaluated by staining with Annexin V/PI. […]
The induction of caspase-dependent apoptosis on primary CLL cells by EC-7072 was assessed by: • (i) incubating PBMCs isolated from patients with CLL (n = 6) following treatment with increasing concentrations of EC-7072 (0 - 400 nM) for 24 hours. Apoptosis of leukemia cells was evaluated by cytofluorometric assessment of Annexin V/PI staining to obtain percentages of apoptotic [Annexin V^+ PI^-] and dead [PI^+] cells (Figure 3A); • (ii) incubating PBMCs and T cells isolated from patients with CLL (n = 3) following treatment with EC-7072 (200 nM) for 24 hours. […]

Regarding `CO[C@@H]([C@@H]1Cc2cc3cc(O[C@H]4C[C@@H](O[C@H]5C[C@@H](O)[C@H](O)[C@@H](C)O5)[C@H](O)[C@@H](C)O4)c(C)c(O)c3c(O)c2C(=O)[C@H]1O[C@H]1C[C@@H](O[C@H]2C[C@@H](O[C@H]3C[C@](C)(O)[C@H](O)[C@@H](C)O3)[C@@H](O)[C@@H](C)O2)[C@H](O)[C@@H](C)O1)[C@@H](O)C(C)=O` [EC-7072, mithramycin SK], the “apoptosis of leukemia cells (Annexin V/PI)” value was “significantly induces CLL cell apoptosis”.
